Earlier results in patent US6380175B1, “Method for enhancement of delivery of THC by the administration of its prodrugs via the nasal route” (New Millennium Pharmaceutical Research, Inc., priority 1999, dated 2002).

Details: room temperature

CCCCCc1cc(O)c2c(c1)OC(C)(C)C1CCC(C)=CC21 (stereo not shown) [THC, Δ-9-tetrahydrocannabinol]
aqueous solubility: very poor aqueous solubility
